According to the supplement of paper PMC10307832:

How the values were obtained:
Assay in all cases: relative viability (nuclei count vs DMSO), 5 days (fraction); higher = more cells survive
[1] = compound: CC1=C(N=C(N=C1N)[C@H](CC(=O)N)NC[C@@H](C(=O)N)N)C(=O)N[C@@H]([C@H](C2=CN=CN2)OC3C(C(C(C(O3)CO)O)O)OC4C(C(C(C(O4)CO)O)OC(=O)N)O)C(=O)N[C@H](C)[C@H]([C@H](C)C(=O)N[C@@H]([C@@H](C)O)C(=O)NCCC5=NC(=CS5)C6=NC(=CS6)C(=O)NCCC[S+](C)C)O [Bleomycin] + Cc1cc(Nc2cc(N3CCN(C)CC3)nc(Sc3ccc(NC(=O)C4CC4)cc3)n2)n[nH]1 [Tozasertib] (partner 0.1 µM); conditions: main component drawn
Summary of the method: (§1)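 Each reported value is a median over duplicate plates. It expresses relative viability: treated-well nuclei count divided by vehicle-well nuclei count. Lung cancer cell lines in 1536-well plates were dosed by pin tool a day after seeding, alone with one drug or with a fixed anchor-drug dose plus five library-drug doses (not always all listed) in √10 steps, and nuclei were counted after 5 days.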

[2] = compound: COc1cc([C@@H]2c3cc4c(cc3[C@@H](O[C@@H]3O[C@@H]5CO[C@@H](C)O[C@H]5[C@H](O)[C@H]3O)[C@H]3COC(=O)[C@H]23)OCO4)cc(OC)c1O [Etoposide] + CC1(C)CCC(c2ccc(Cl)cc2)=C(CN2CCN(c3ccc(C(=O)NS(=O)(=O)c4ccc(N[C@H](CCN5CCOCC5)CSc5ccccc5)c(S(=O)(=O)C(F)(F)F)c4)cc3)CC2)C1 [Navitoclax] (partner 0.5 µM)
Summary of the method: as §1

[3] = compound: COc1cc([C@@H]2c3cc4c(cc3[C@@H](O[C@@H]3O[C@@H]5CO[C@@H](C)O[C@H]5[C@H](O)[C@H]3O)[C@H]3COC(=O)[C@H]23)OCO4)cc(OC)c1O [Etoposide] + C[C@@H](Oc1cc(-c2cnn(C3CCNCC3)c2)cnc1N)c1c(Cl)ccc(F)c1Cl [Crizotinib] (partner 1 µM)
Summary of the method: as §1

[4] = compound: COc1cc([C@@H]2c3cc4c(cc3[C@@H](O[C@@H]3O[C@@H]5CO[C@@H](C)O[C@H]5[C@H](O)[C@H]3O)[C@H]3COC(=O)[C@H]23)OCO4)cc(OC)c1O [Etoposide] + Nc1nc2[nH]cc(CCc3ccc(C(=O)N[C@@H](CCC(=O)O)C(=O)O)cc3)c2c(=O)[nH]1 [Pemetrexed] (partner 0.2 µM)
Summary of the method: as §1

Cell Line	relative viability ([1]; first compound 0.01 µM)	relative viability ([1]; first compound 0.03162 µM)	relative viability ([1]; first compound 0.1 µM)	relative viability ([1]; first compound 0.3162 µM)	relative viability ([1]; first compound 1 µM)	relative viability ([2]; first compound 0.01 µM)	relative viability ([2]; first compound 0.03162 µM)	relative viability ([2]; first compound 0.1 µM)	relative viability ([2]; first compound 0.3162 µM)	relative viability ([2]; first compound 1 µM)	relative viability ([3]; first compound 0.01 µM)	relative viability ([3]; first compound 0.03162 µM)	relative viability ([3]; first compound 0.1 µM)	relative viability ([3]; first compound 0.3162 µM)	relative viability ([3]; first compound 1 µM)	relative viability ([4]; first compound 0.01 µM)	relative viability ([4]; first compound 0.03162 µM)	relative viability ([4]; first compound 0.1 µM)	relative viability ([4]; first compound 0.3162 µM)	relative viability ([4]; first compound 1 µM)
NCI-H322M	0.424	0.496	0.473	0.396	0.38	1.29	1.37	1.01	0.886	0.574	0.775	0.889	0.905	0.871	0.533	0.604	0.603	0.625	0.587	0.524
NCI-H520	0.412	0.422	0.486	0.33	0.358	0.985	1	1.08	0.951	0.956	0.759	0.729	0.944	0.725	0.629	0.633	0.801	0.708	0.65	0.485
NCI-H1734	0.222	0.223	0.279	0.199	0.15	0.761	0.9	0.665	0.598	0.266	0.647	0.643	0.541	0.497	0.271	0.391	0.49	0.408	0.415	0.328
LXF-289	0.179	0.193	0.181	0.0822	0.0688	0.977	0.971	0.984	0.605	0.174	0.851	0.824	0.836	0.511	0.251	0.961	0.952	1.04	0.788	0.285
H3255	0.543	0.489	0.622	0.427	0.278	0.538	0.556	0.334	0.348	0.14	0.802	0.841	0.667	0.537	0.231	0.541	0.619	0.564	0.536	0.404
201T	0.874	0.943	0.894	0.642	0.548	1.25	1.23	1.13	1.14	1.02	1.02	1.03	0.975	0.898	0.678	0.325	0.343	0.355	0.318	0.32
NCI-H2228	0.216	0.248	0.218	0.12	0.137	0.842	0.934	0.849	0.473	0.138	0.633	0.551	0.457	0.373	0.218	0.375	0.358	0.355	0.299	0.181
HOP-62	0.229	0.208	0.194	0.144	0.102	1.07	0.995	0.987	0.598	0.236	0.96	0.998	0.799	0.681	0.157	0.389	0.361	0.378	0.318	0.243
CAL-12T	0.23	0.249	0.179	0.179	0.208	1.13	1.26	1.17	0.752	0.791	0.547	0.573	0.82	0.298	0.223	1.02	1.29	1.07	0.963	0.484
NCI-H596	0.639	0.583	0.468	0.354	0.253	0.977	0.989		0.87	0.642	1.02	0.96		0.808	0.681	0.463	0.539	0.488	0.546	0.477
NCI-H1755	0.54	0.54	0.636	0.468	0.333	0.917	1.03	1.07	0.939	0.882	0.846	0.839	0.931	0.716	0.595	0.468	0.467	0.519	0.41	0.428
NCI-H2023	0.237	0.283	0.222	0.116	0.109	0.99	0.964	0.929	0.423	0.347	0.605	0.622	0.525	0.212	0.106	0.241	0.272	0.182	0.156	0.143
NCI-H2009	0.717	0.789	0.701	0.424	0.351	1.13	1.08	1.21	0.771	0.496	1.02	0.994	1.08	0.713	0.329	0.976	0.957	1.12	0.703	0.57
